Assay results as given in patent US12371668B2, “Methods for tissue generation” (priority 2018, dated 2025).
Entries after “also recorded” stand apart in the source; their conditions may differ. Each block holds one molecule with its values, some of them ahead of it.

Key:
[1] = system: ventricular tissues derived from BJ1D iPSC-CM; test: Intracellular action potential recordings in ventricular Biowires; format: cell-based, human; details: for responses on action potentials: ventricular Biowires, FIGS. 12E-12N
Protocol: Tissues were perfused with 35-37° C. […] They were paced at twice the ET. The action potential was recorded with high impedance microelectrodes (60-90 MΩ) filled with 3M KCl, connected to an Axopatch 200B amplifier (Axon Instruments). Recordings were performed in current clamp mode at 2 kHz and signals were analyzed using the Clampfit 10 Data Analysis Module of the pCLAMP™ 10 Electrophysiology Data Acquisition & Analysis Software (Axon Instruments). The movement of the tissue was minimized by perfusing with 10 μM blebbistatin (Toronto Research Chemicals) for 20 min. The effect of various compounds on the action potential was assessed by preparing an appropriate dilution of the compound in Krebs's Solution or DMEM.

[2] = system: atrial tissues derived from Hes3 hESC-CM; test: Intracellular action potential recordings in atrial Biowires; format: cell-based, human
Protocol: Tissues were perfused with 35-37° C. Kreb's Solution (118 mM NaCl, 4.2 mM KCl, 1.2 mM KH2PO4, 1.2 mM MgSO4, 1.8 mM CaCl2, 23 mM NaHCO3, 2 mM Na-pyruvate and 20 mM glucose, equilibrated with 95% 02 and 5% CO2, pH 7.4) or DMEM medium. They were paced at twice the ET. The action potential was recorded with high impedance microelectrodes (60-90 MΩ) filled with 3M KCl, connected to an Axopatch 200B amplifier (Axon Instruments). Recordings were performed in current clamp mode at 2 kHz and signals were analyzed using the Clampfit 10 Data Analysis Module of the pCLAMP™ 10 Electrophysiology Data Acquisition & Analysis Software (Axon Instruments). The movement of the tissue was minimized by perfusing with 10 μM blebbistatin (Toronto Research Chemicals) for 20 min. The effect of various compounds on the action potential was assessed by preparing an appropriate dilution of the compound in Krebs's Solution or DMEM.

[3] = system: ventricular Biowires created from BJ1D iPSCs and HES3 ESCs; test: Dynamic force recordings of ventricular Biowires under stimulation; format: cell-based, human; details: FIG. 2G
Protocol: Blue channel image sequences were analyzed using a custom MatLab code that traced the maximum deflection of the POMaC wire. Average tissue width (diameter) and width of the tissue on the polymer wire (Tw) were measured from still frames of the 4× bright field video of the tissue in the relaxed position (FIGS. 8C-8D). Total (at peak contraction) and passive (at rest) POMaC wire deflections were converted to force measurements (μN) using the force calibration curves described in the previous section. The final readouts for the total and passive tension of tissue were then interpolated according to the Tw and custom tip sizes. The active force was calculated as the difference between the total and passive tension (FIG. 2C). The custom MatLab code was used to calculate the passive tension, active force, contraction and relaxation duration, and upstroke and relaxation velocity. To investigate the contractile effects of various compounds on the tissues, a custom testing chamber was fabricated in a 6-well plate modified with an extraction/injection port connected to a 5 mL syringe, a pair of carbon electrodes (set 1 cm apart) with platinum wire lead attachments and a custom 3D-printed holder for a polystyrene chip with a single microwell. Prior to testing, the tissue was transferred to the custom testing chamber and placed in the environmental chamber on the microscope stage (37° C., 5% CO2), where it was allowed to equilibrate for 30 min in the presence of electrical field stimulation (1 Hz, at ET). A bright field video of the tissue was taken before testing to obtain all the necessary measurements for the force calculation. For testing, the voltage was increased to 10% above the ET, and videos were taken of one polymer wire (10× objective). Prior to the test compound injection, media were extracted and injected through the port twice at 10 min intervals to pre-condition the tissue to the testing process. Compounds were diluted in media at concentrations 1000-fold higher than the desired final concentration. For compound testing, ⅓^rd of the media was extracted from the chamber, the compound was added to the extracted media and then injected back into the testing chamber. After 10-15 min, videos in the blue channel were recorded. The procedure was repeated for sequential drug dosages. The videos were analyzed using the custom MatLab software, as indicated for the weekly FFR assessments.

[4] = Long-term absorption test, Biowire chips; format: physicochemical
Protocol: (§1) For the long-term absorption test, polystyrene strips containing microwells and POMaC wires, with and without the adhesive, were cut into chips (9 mm×9 mm×1 mm) containing a single microwell. Chips of the same geometry were also made using PDMS. The polystyrene and PDMS chips were incubated in 1 mL Rhodamine B (1 μM; Sigma-Aldrich) in a 24 well-plate at 37° C. for up to 1 wk. Tissue culture treated 24 well-plates were incubated with the dye in the absence of any chips as a control. At 6 h, 24 h, 48 h, and 1 wk, 100 μL of the dye solution was transferred to a 96-well plate and the fluorescence was read using a SpectraMax i3 plate reader (Molecular Devices; λex=540 nm, λem=625 nm), (n=3). Additionally, fluorescent images of the chips were taken in the absence of treatment, after 1 wk of dye incubation, and after 2 h of washing following 1 wk of dye incubation.

[5] = Long-term absorption test, PDMS chips; format: physicochemical; details: 1 wk incubation then washout for 2 hours
Protocol: as §1

[6] = system: ventricular portions of heteropolar Biowires (Hes3 hESC); test: Optical mapping of impulse propagation in atrioventricular Biowires, ventricular region; format: cell-based, human; details: 1 μM, listed as Ranolazine
Protocol: (§2) To generate atrioventricular tissues, dissociated atrial cardiac cells and cardiac fibroblasts were mixed in a 10:1.5 cell number ratio. Dissociated ventricular cells and cardiac fibroblasts were mixed in a 10:1.5 cell number ratio. The mixed cells were pelleted and resuspended at a concentration of 5.75×10^7 cells/mL in collagen hydrogel. When seeding, cell-hydrogel mixture containing atrial CMs (1 μL) were seeded on one side of the Biowire II well first, followed by mixture containing ventricular CMs (1 μL) seeded on the other side. After seeding, tissues were cultured for 7 days to allow for remodeling and compaction around the POMaC wires.
(§3) For atrioventricular preparations, electrical stimulation started at 2 Hz on day 7 and the protocol of 1 Hz weekly step-up was used until the frequency reached 6 Hz. If average MCR exceeded 4 Hz after one week of 2 Hz stimulation, or exceeded 5 Hz after one week of 3 Hz stimulation, stimulation frequency could be changed directly from 2 Hz to 4 Hz or 3 Hz to 5 Hz to accelerate the process. […]
(§4) Tissues were perfused with 5 μM voltage sensitive dye, Di-4-ANEPPS (Invitrogen), in Kreb's Solution at 35-37° C. for 20 min. Dye fluorescence was recorded on an MVX-10 Olympus fluorescence microscope (Olympus Corporation) equipped with a charged coupled device (CCD) (Cascade 128, Photometrics). […]

[7] = system: atrial region of heteropolar Biowires (Hes3 hESC); test: Optical mapping of impulse propagation in atrioventricular Biowires, atrial region; format: cell-based, human; details: 1 μM
Protocol: as §2, §3, §4

[8] = system: atrial end of heteropolar atrio-ventricular Biowires (Hes3 hESC); test: Calcium transients in atrioventricular Biowires, atrial end; format: cell-based, human
Protocol: as §2, with “wires. […]” for “wires.”
(§5) To investigate the relative changes of intracellular calcium concentration, tissues were incubated with the calcium dye Fluo-4 NW (Thermo Fisher) for 30 min at 37° C. prior to testing. To obtain both calcium transients and contractility readouts consecutively and synchronously, the testing process was performed using both green light channel (λex=490 nm, λem=525 nm) and/or blue channel at 10× or 4× magnification. […] The ratio of peak tissue fluorescence intensity to baseline intensity, dF/F0 was calculated to determine the relative changes in intracellular calcium in the presence of the compound. For the consecutive force and calcium transient readouts, contractile measurements were extracted from the blue channel as described before. […]

[9] = system: atrial tissue derived from Hes3 hESC-CM; test: Force and calcium transient measurement in atrial Biowires; format: cell-based, human; details: atrial preparations, increasing concentrations
Protocol: To investigate the contractile effects of various compounds on the tissues, a custom testing chamber was fabricated in a 6-well plate modified with an extraction/injection port connected to a 5 mL syringe, a pair of carbon electrodes (set 1 cm apart) with platinum wire lead attachments and a custom 3D-printed holder for a polystyrene chip with a single microwell. Prior to testing, the tissue was transferred to the custom testing chamber and placed in the environmental chamber on the microscope stage (37° C., 5% CO2), where it was allowed to equilibrate for 30 min in the presence of electrical field stimulation (1 Hz, at ET). […] After 10-15 min, videos in the blue channel were recorded. […] The videos were analyzed using the custom MatLab software, as indicated for the weekly FFR assessments.
as §5, with “testing.” for “testing. To obtain both calcium transients and contractility readouts consecutively and synchronously, the testing process was performed using both green light channel (λex=490 nm, λem=525 nm) and/or blue channel at 10× or 4× magnification.”

[10] = system: ventricular tissue derived from BJ1D iPSC-CM; test: Force and calcium transient measurement in ventricular Biowires; format: cell-based, human
Protocol: To investigate the contractile effects of various compounds on the tissues, a custom testing chamber was fabricated in a 6-well plate modified with an extraction/injection port connected to a 5 mL syringe, a pair of carbon electrodes (set 1 cm apart) with platinum wire lead attachments and a custom 3D-printed holder for a polystyrene chip with a single microwell. Prior to testing, the tissue was transferred to the custom testing chamber and placed in the environmental chamber on the microscope stage (37° C., 5% CO2), where it was allowed to equilibrate for 30 min in the presence of electrical field stimulation (1 Hz, at ET). A bright field video of the tissue was taken before testing to obtain all the necessary measurements for the force calculation. For testing, the voltage was increased to 10% above the ET, and videos were taken of one polymer wire (10× objective). Prior to the test compound injection, media were extracted and injected through the port twice at 10 min intervals to pre-condition the tissue to the testing process. […] For compound testing, ⅓^rd of the media was extracted from the chamber, the compound was added to the extracted media and then injected back into the testing chamber. After 10-15 min, videos in the blue channel were recorded. The procedure was repeated for sequential drug dosages. The videos were analyzed using the custom MatLab software, as indicated for the weekly FFR assessments.
To investigate the relative changes of intracellular calcium concentration, tissues were incubated with the calcium dye Fluo-4 NW (Thermo Fisher) for 30 min at 37° C. prior to testing. […] The ratio of peak tissue fluorescence intensity to baseline intensity, dF/F0 was calculated to determine the relative changes in intracellular calcium in the presence of the compound. For the consecutive force and calcium transient readouts, contractile measurements were extracted from the blue channel as described before. For the synchronous readouts, the contractile measurements were extracted from the green channel videos using modified version of the ImageJ SpotTracker plugin. […]

[11] = atrial Biowires, low doses (25 μM)

Compound: Nc1ccncc1 [4AP, 4-aminopyridine]
APD ([1]; ventricular tissues, higher doses): did prolong APD | action potential amplitudes and APD30 ([1]; ventricular tissues, low doses (25 μM)): without measurable effects | APD30 [2, 11]: prolonged | action potential amplitudes [2, 11]: increased | AP duration ([2]; atrial tissues, very low concentrations (<50 μM)): prolonged

Compound: Cc1cccc(CCN2CCC(C(=O)c3ccc(NS(C)(=O)=O)cc3)CC2)n1 [E-4031]
changes in the active forces and beat patterns [3]: promotes spontaneous irregular beating patterns consistent with arrhythmias

fluorescence levels in solution versus PDMS chips ([4]; 1 μM dye, 37° C., incubation 24 hours and longer): remained higher than in PDMS chips | fluorescence in chip after washout ([4]; 1 wk incubation then washout for 2 hours): undetectable | levels versus tissue plastic well controls ([4]; after 6 hours): not significantly different | fluorescence in chip after washout [5]: remained widespread
Compound: CCN(CC)c1ccc2c(-c3ccccc3C(=O)O)c3ccc(=[N+](CC)CC)cc-3oc2c1.[Cl-] [Rhodamine B]

Compound: C[N+](C)(C)CCOC(N)=O [carbachol]
APDs (action potential durations) ([1]; ventricular tissues): without affecting these parameters | APDs (action potential durations) ([2]; atrial Biowires): abbreviated APDs; also recorded: shortened atrial APDs only

Compound: COc1ccc([C@@H]2Sc3ccccc3N(CCN(C)C)C(=O)[C@@H]2OC(C)=O)cc1 [diltiazem]
changes in the active forces and beat patterns [3]: produces negative inotropic effects

Compound: CN(CCOc1ccc(NS(C)(=O)=O)cc1)CCc1ccc(NS(C)(=O)=O)cc1 [dofetilide]
responses on action potentials [1]: predictable responses

Compound: CC(C)NCC(O)c1ccc(O)c(O)c1 (centres unmarked) [isoproterenol]
changes in the active forces and beat patterns [3]: increases contractility

Compound: CCN(CC)CC(=O)Nc1c(C)cccc1C [lidocaine]
changes in the active forces and beat patterns [3]: inhibits tissue electrical excitability

Compound: Cc1[nH]c(=O)c(C#N)cc1-c1ccncc1 [milrinone]
changes in the active forces and beat patterns [3]: enhances contractility

Compound: COc1ccccc1OCC(O)CN1CCN(CC(=O)Nc2c(C)cccc2C)CC1 (centres unmarked) [ranolazine]
conduction velocity [6]: without affecting | conduction velocity [7]: significantly slowed down | conduction velocity ([7]; listed as Ranolazine): decreased conduction velocity

Compound: NCCc1c[nH]c2ccc(O)cc12 [serotonin]
Ca2+ transients [8]: increased; also recorded: positive inotropic effect

Compound: C/C=C(/C)C(=O)O[C@H]1C(C)=C2[C@H]([C@@H]1OC(=O)CCCCCCC)[C@@](C)(OC(C)=O)C[C@H](OC(=O)CCC)[C@@]1(O)[C@H]2OC(=O)[C@@]1(C)O [thapsigargin]
force and Ca′ transient amplitudes [9]: dose-dependently decreased | potency in ventricular versus atrial preparations ([10]; decrease of force and Ca′ transient amplitudes): higher potency in ventricle | time-to-peak and decay rates of both force and Ca2+ ([10]; ventricular Biowires, low pacing rates): prolonged | force and Ca′ transient amplitudes ([10]; ventricular preparations, increasing concentrations): dose-dependently decreased

Compound: COc1ccc(CCN(C)CCCC(C#N)(c2ccc(OC)c(OC)c2)C(C)C)cc1OC (centres unmarked) [verapamil]
responses on action potentials [1]: predictable responses
